The subject of series [1] is immortalized murine bone marrow-derived macrophages. As to the kind of experiment: CellTiter-Blue cell viability assay. The series is classed as cell-based. The following applies: 4 h in Opti-MEM, tested 625 nM to 40 μM. On the procedure: Next, the probes were examined in cell culture experiments. First, we determined the cytotoxicity of probes 1–4 at different concentrations between 625 nM and 40 μM in immortalized murine bone marrow-derived macrophages (Figure 4).
Figure 4 Cell viability of immortalized murine bone marrow-derived macrophages after treatment with probes 1–4. Cells were treated with the probes at different concentrations in Opti-MEM for 4 h. Cell viability was assessed using the CellTiter-Blue cell viability assay.
NLRP3 KO immortalized murine bone marrow-derived macrophages overexpressing mouse NLRP3-FLAG and human ASC-mCerulean were seeded in 96 well plates and incubated overnight. Cells were treated with the fluorescent probes (1 and 2) and the biotin-tagged probes (3 and 4) at different concentrations in Opti-MEM for 4 h. Subsequently, cell viability was assessed using CellTiter-Blue® cell viability assay according to the manufacturer's instructions.
(The colour change of resazurin is a common sign of viable cells or microbes.)

Series [2] has as its system NLRP3 inflammasome. As to the kind of experiment: IL-1β release (HTRF) after LPS priming and nigericin, NLRP3 inflammasome. Type of series: cell-based, murine. Conditions: for effect on cytokine (IL-1β) release: 20 μM. On the procedure: The following experiments were performed with probes 1–4 in immortalized murine bone marrow-derived macrophages. Nigericin, an antibiotic carboxylate ionophore, was used as the activator of the NLRP3 inflammasome, owing to its ability to induce a potassium efflux. […] For this purpose, AIM2 was stimulated by transfection with poly(deoxyadenylic-deoxythymidylic) acid [poly(dA:dT)] after pretreatment with LPS. A Homogeneous Time Resolved Fluorescence (HTRF) assay was employed to determine the release of IL-1β (Figure 5).
All data are means ± SEM (n = 3), Student's t-test. *P ≤ 0.05, **P ≤ 0.01, ***P ≤ 0.001.
NLRP3 KO Immortalized murine bone marrow-derived macrophages overexpressing mouse NLRP3-Flag and human ASC-mCerulean were seeded in 96-well plates and incubated for 16 h. Cells were treated with 400 ng/mL ultrapure LPS for 3 h. […] Subsequently, to induce NLRP3 inflammasome activation, cells were treated with 10 μM nigericin for 1.5 h. As controls, to activate the AIM2 inflammasome, cells were transfected with 200 ng of poly(dA:dT) using 0.5 μL lipofectamine 2,000 per well for 4 h. Supernatants were collected to measure cytosolic LDH release by an LDH assay and IL-1ß release by Homogeneous Time Resolved Fluorescence (HTRF). All assays were performed according to the manufacturer's instructions. A two-tailed unpaired t-test was performed using GraphPad Prism 9.
For orientation: TR-FRET usually uses a lanthanide donor and a delayed reading to cut background.

Series [3] deals with human NLRP3-PYD-NACHT domain protein (Homo sapiens, UniProt Q96P20). As to the kind of experiment: SPR single-cycle kinetic binding to immobilized biotinylated NLRP3-PYD-NACHT. Conditions: for kd, first-order off-rate constant for dissociation: SPR, 25 °C, 1:1 binding model; for kon: read-out: ka, second-order on-rate constant for association.
Method: HEK293T cells were transiently co-transfected with human avi-FLAG-His10-NLRP3-PYD-NACHT domain (pIRES puro 3 vector) and BirA (pcDNA3.1 vector) for in-cell biotinylation at the lysine amino group of the Avi-tag. […] Eluted protein was stored snap frozen in liquid nitrogen, aliquoted, and stored at −80 °C.
(§1) SPR experiments were performed using a Biacore 8K instrument (GE Healthcare). The flow system was cleaned using the maintenance “Desorb” function (Desorb Kit, GE Healthcare). […] Biotinylated NLRP3-PYD-NACHT protein (2 μL/min, 900 s) was immobilized on the sensor chip flow cell 2. The flow system was washed using 50% isopropanol in 1 M NaCl and 50 mM NaOH. Free streptavidin binding sites were blocked by four consecutive 2-min injections (1,000 nM, 10 μL/min) of Biotin-PEG (Mn = 2,300 Da) (Sigma Aldrich). […] Data were collected at a rate of 10 Hz. The binding data were double referenced by blank cycle and reference flow cell subtraction. Data were corrected by a 4-point solvent correction. For kinetic binding experiments, processed data were fitted to a 1:1 interaction model using the Biacore Insight Evaluation Software (version 3.0.12.15655).
Series [4] concerns NLRP3-dependent cell death. As to the kind of experiment: LDH release (pyroptosis) after LPS and nigericin, NLRP3-dependent. The series is classed as cell-based, murine. The following applies: LPS + nigericin. (LDH leaks from cells whose membrane has failed.)
Method: NLRP3 KO Immortalized murine bone marrow-derived macrophages overexpressing mouse NLRP3-Flag and human ASC-mCerulean were seeded in 96-well plates and incubated for 16 h. Cells were treated with 400 ng/mL ultrapure LPS for 3 h. […] Subsequently, to induce NLRP3 inflammasome activation, cells were treated with 10 μM nigericin for 1.5 h. […] Supernatants were collected to measure cytosolic LDH release by an LDH assay and IL-1ß release by Homogeneous Time Resolved Fluorescence (HTRF). All assays were performed according to the manufacturer's instructions. A two-tailed unpaired t-test was performed using GraphPad Prism 9.
The subject of series [5] is AIM2-dependent cell death. As to the kind of experiment: LDH release (pyroptosis) after LPS and poly(dA:dT), AIM2-dependent. The series is classed as cell-based, murine. Conditions: LPS + poly(dA:dT). Here is the method: […]. All data are means ± SEM (n = 3), Student's t-test. *P ≤ 0.05, **P ≤ 0.01, ***P ≤ 0.001.
To assess pyroptosis, cytosolic lactate dehydrogenase (LDH) release was measured as a marker of cell lysis. […] […]. All assays were performed according to the manufacturer's instructions. A two-tailed unpaired t-test was performed using GraphPad Prism 9.

For series [6], the system named is AIM2 inflammasome. As to the kind of experiment: IL-1β release (HTRF) after LPS priming and poly(dA:dT) transfection, AIM2 inflammasome. The following applies: poly(dA:dT).
Method: The following experiments were performed with probes 1–4 in immortalized murine bone marrow-derived macrophages. […] For this purpose, AIM2 was stimulated by transfection with poly(deoxyadenylic-deoxythymidylic) acid [poly(dA:dT)] after pretreatment with LPS. A Homogeneous Time Resolved Fluorescence (HTRF) assay was employed to determine the release of IL-1β (Figure 5).
Series [7] addresses human NLRP3-PYD-NACHT (Homo sapiens, UniProt Q96P20). As to the kind of experiment: SPR competition mode (second ligand injected 120 s after the first). The following applies: competition with CRID3/MCC950, equimolar, 10-times the kinetic KD of the test compound, either order of injection.
Method: as §1
The mark [8] stands for this setting: concentrations of Figure 5 (not given).

human NLRP3-PYD-NACHT domain protein, sequence (Q96P20 1-649 limits assumed): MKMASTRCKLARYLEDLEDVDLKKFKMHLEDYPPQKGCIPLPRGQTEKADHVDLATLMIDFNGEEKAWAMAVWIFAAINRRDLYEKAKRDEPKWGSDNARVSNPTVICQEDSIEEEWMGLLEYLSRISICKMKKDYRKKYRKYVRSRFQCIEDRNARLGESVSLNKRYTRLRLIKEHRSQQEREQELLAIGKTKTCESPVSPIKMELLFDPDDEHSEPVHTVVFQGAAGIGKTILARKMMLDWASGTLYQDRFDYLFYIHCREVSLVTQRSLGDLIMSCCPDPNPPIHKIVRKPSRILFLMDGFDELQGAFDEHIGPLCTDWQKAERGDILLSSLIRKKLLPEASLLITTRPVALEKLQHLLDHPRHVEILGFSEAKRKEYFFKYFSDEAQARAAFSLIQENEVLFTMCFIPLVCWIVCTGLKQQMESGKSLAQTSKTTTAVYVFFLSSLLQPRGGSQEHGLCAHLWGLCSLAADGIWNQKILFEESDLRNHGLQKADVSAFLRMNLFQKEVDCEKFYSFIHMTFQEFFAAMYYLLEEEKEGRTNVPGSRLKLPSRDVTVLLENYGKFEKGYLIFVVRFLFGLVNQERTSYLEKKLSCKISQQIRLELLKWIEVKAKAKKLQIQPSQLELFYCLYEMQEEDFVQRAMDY
human NLRP3-PYD-NACHT, sequence (Q96P20 1-649 limits assumed): as above

Regarding `O=C(CCCC[C@H]1SC[C@H]2NC(=O)N[C@H]21)NCCOCCOCC(=O)NCc1ccc(S(=O)(=O)NC(=O)Nc2c3c(cc4c2CCC4)CCC3)cc1` [Compound 3, N-(2-(2-(2-([4-(N-([1,2,3,5,6,7-Hexahydro-s-indacen-4-yl]carbamoyl)sulfamoyl)benzyl]amino)-2-oxoethoxy)ethoxy)ethyl)-5-([3aR,4R,6aS]-2-oxohexahydro-1H-thieno[3,4-d]imidazol-4-yl)pentanamide], the melting point – broadly, the temperature, or range, at which the solid turns liquid – lay in the range of 140 to 142 °C. Further, the “non-toxic up to concentration” value in series [1] is recorded as “up to 40 μM”. Also, the “effect on cytokine (IL-1β) release” value in series [2] is “did not significantly affect the cytokine release”. Moreover, in series [3], binding was put at a Kd of 1030 nM; the “kd, first-order off-rate constant for dissociation” value (from here on “kd, first-order off-rate constant”) was determined as 0.022 s⁻¹; the kon was 22000 M⁻¹ s⁻¹.

Consider `O=C(COCCOCCNC(=O)c1cc2cc3c4c(c2oc1=O)CCCN4CCC3)NCc1ccc(S(=O)(=O)NC(=O)Nc2c3c(cc4c2CCC4)CCC3)cc1` [Compound 1, N-(2-(2-(2-([4-(N-([1,2,3,5,6,7-Hexahydro-s-indacen-4-yl]carbamoyl)sulfamoyl)benzyl]amino)-2-oxoethoxy)ethoxy)ethyl)-11-oxo-2,3,6,7-tetrahydro-1H,5H,11H-pyrano[2,3-f]pyrido[3,2,1-ij]quinoline-10-carboxamide], for which the “non-toxic up to concentration” value in series [1] is listed as “up to 10 μM”. Further, the “inhibition of IL-1β release” value in series [2] (10 μM) is given as “complete inhibition”. Moreover, the “NLRP3-dependent cell death (LDH release)” value in series [4] (10 μM) is recorded as “prevented”. In addition, the “AIM2-dependent cell death (LDH release)” value in series [5] (10 μM) was “but not the AIM2-dependent cell death”. In addition, in series [3], binding was characterised by a dissociation constant (Kd) of 813 nM; the “kd, first-order off-rate constant” value was 0.01 s⁻¹; the kon is 13000 M⁻¹ s⁻¹. For the same molecule, the “AIM2-dependent IL-1β release” value in series [6] (setting [8]) is “did not affect this process”.

For the molecule `O=C(Nc1c2c(cc3c1CCC3)CCC2)NS(=O)(=O)c1ccc(CNC(=O)c2cc3cc4c5c(c3oc2=O)CCCN5CCC4)cc1` [Compound 2], in series [1], the “some cytotoxicity at concentrations higher than” value is reported as “higher than 2.5 μM”. The “inhibition of IL-1β release” value in series [2] (2.5 μM) is recorded as “complete inhibition”. The “NLRP3-dependent cell death (LDH release)” value in series [4] (2.5 μM) is listed as “prevented”. For the same molecule, in series [5] (2.5 μM), the “AIM2-dependent cell death (LDH release)” value is listed as “but not the AIM2-dependent cell death”. Further, in series [7], the “response change indicative of a second binding site” value was “No significant response change”. In series [3], the Kd (in general, a measure of binding affinity in units of concentration) was found to be 322 nM; the “kd, first-order off-rate constant” value was found to be 0.0033 s⁻¹; the kon came out at 10000 M⁻¹ s⁻¹. Further, the “AIM2-dependent IL-1β release” value in series [6] (2.5 μM) is given as “only a slightly reduced AIM2-dependent release of IL-1β”. Also, the “AIM2-dependent IL-1β release” value in series [6] (20 μM, data not shown, attributed to cytotoxicity) is given as “reduced AIM2-dependent IL-1β release”.

With `CC(C)(O)c1coc(S(=O)(=O)NC(=O)Nc2c3c(cc4c2CCC4)CCC3)c1` [CRID3/MCC950, reference compound], the “AIM2-dependent cell death (LDH release)” value in series [5] (2.5 μM) was “but not the AIM2-dependent cell death”. Further, in series [6] (setting [8]), the “AIM2-dependent IL-1β release” value is recorded as “did not affect this process”.

Take `O=C(CCCCC1SCC2NC(=O)NC21)NCc1ccc(S(=O)(=O)NC(=O)Nc2c3c(cc4c2CCC4)CCC3)cc1` (centres unmarked) [Compound 4]: the “non-toxic up to concentration” value in series [1] is listed as “up to 40 μM”. The “effect on cytokine (IL-1β) release” value in series [2] was “did not significantly affect the cytokine release”. In series [7], the “response change indicative of a second binding site” value is listed as “No significant response change”. In series [3], the dissociation constant (Kd) worked out at 611 nM; the “kd, first-order off-rate constant” value amounted to 0.0088 s⁻¹; the kon came to 14000 M⁻¹ s⁻¹.

These data come from paper PMC8115122, “Development of Fluorescent and Biotin Probes Targeting NLRP3” (Frontiers in Chemistry, 2021).
